Patent US20080026996A1, “Selective Vpac2 Receptor Reptide Agonists” (ELI LILLY AND COMPANY, priority 2004, published 2008)
Where no end group is shown, it is not given here. [ ]: non-standard residue; d: D form. The star is where a group is joined. Orn = NCCC[C@H](N)C(=O)O; Hexanoyl = CCCCCC(=O)*; Aib = CC(C)(N)C(=O)O

Assays:
human VPAC2 [1] = target: T1, human VPAC2 (Homo sapiens, UniProt P41587); assay: Alpha screen cAMP in vitro potency, human VPAC2 receptor; type: cell-based; conditions: cAMP generation; single result from two analyses performed in a single run; read-out: Human VPAC2 Receptor: Alpha Screen EC50
T1 construct: expressed in transfected cells
T1 sequence (P41587 24-438): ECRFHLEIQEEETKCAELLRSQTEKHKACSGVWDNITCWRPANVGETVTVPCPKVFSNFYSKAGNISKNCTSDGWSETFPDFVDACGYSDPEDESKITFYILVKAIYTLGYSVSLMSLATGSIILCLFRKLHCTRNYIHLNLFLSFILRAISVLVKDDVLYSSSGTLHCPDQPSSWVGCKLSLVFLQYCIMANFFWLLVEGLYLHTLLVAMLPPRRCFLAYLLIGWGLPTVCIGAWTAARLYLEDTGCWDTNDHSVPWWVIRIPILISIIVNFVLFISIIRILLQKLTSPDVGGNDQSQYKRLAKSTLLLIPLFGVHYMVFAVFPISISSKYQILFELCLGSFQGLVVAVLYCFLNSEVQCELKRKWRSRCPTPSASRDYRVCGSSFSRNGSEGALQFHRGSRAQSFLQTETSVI
In short: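 Cells were detached with enzyme-free dissociation buffer, washed into stimulation buffer and used at 50,000 cells per data point. Stimuli and AlphaScreen acceptor beads were added for 60 minutes, then lysis buffer with donor beads for 60 to 120 minutes; the AlphaScreen signal reports intracellular cAMP.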

human VPAC2 [2] = target: T1, human VPAC2; assay: Filter binding assay, membranes of stable VPAC2 cell line, 125I-labeled VIP tracer (Table 2); conditions: read-out: Human VPAC2 Receptor Binding
In short: (§1)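 Membranes 2.5 μg/well; tracer ~40000 cpm; buffer 25 mM HEPES pH 7.4, 0.5% protease-free BSA; 1 h incubation, shaking. Glass-fibre filtration (0.5% polyethyleneamine presoak, 0.2% BSA block), 3× HEPES wash, dry 1 h at 60° C, scintillation count.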

[3] = Rat serum stability studies (remaining active peptide by DiscoveRx cAMP on CHO-VPAC2 cells); type: in vitro ADME
In short: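 EC50 from a DiscoveRx cAMP read-out on CHO-VPAC2 cells indexes how much peptide stays active after 18 h in rat serum at 37° C without aprotinin, against an aprotinin-protected 4° C aliquot.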

human VPAC1 = target: T2, human VPAC1 (Homo sapiens, UniProt P32241); assay: Filter binding assay, membranes of cells transiently transfected with human VPAC1, 125I-labeled VIP tracer (Table 2); design: expressed in transfected cells; conditions: read-out: Human VPAC1 Receptor Binding
T2 sequence (P32241 31-457): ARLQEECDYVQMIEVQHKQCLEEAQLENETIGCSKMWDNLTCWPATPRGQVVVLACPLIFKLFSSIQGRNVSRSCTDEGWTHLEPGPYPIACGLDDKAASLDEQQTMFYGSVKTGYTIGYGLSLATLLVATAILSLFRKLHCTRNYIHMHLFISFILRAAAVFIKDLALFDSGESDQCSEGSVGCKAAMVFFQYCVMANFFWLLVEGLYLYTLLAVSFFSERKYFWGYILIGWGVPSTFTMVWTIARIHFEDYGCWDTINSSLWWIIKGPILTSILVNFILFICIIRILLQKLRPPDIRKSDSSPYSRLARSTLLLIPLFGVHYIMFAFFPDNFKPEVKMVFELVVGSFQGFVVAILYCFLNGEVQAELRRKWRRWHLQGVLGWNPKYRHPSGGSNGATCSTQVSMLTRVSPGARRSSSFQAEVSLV
In short: as §1

rat VPAC2 receptor [4] = target: T3, rat VPAC2 receptor (Rattus norvegicus, UniProt P35000); assay: DiscoveRx in vitro potency, CHO-PO cells transiently transfected with rat VPAC 2 receptor DNA; type: cell-based; design: expressed in transfected cells; host or cells: CHO-PO, transient
T3 sequence (P35000 23-437): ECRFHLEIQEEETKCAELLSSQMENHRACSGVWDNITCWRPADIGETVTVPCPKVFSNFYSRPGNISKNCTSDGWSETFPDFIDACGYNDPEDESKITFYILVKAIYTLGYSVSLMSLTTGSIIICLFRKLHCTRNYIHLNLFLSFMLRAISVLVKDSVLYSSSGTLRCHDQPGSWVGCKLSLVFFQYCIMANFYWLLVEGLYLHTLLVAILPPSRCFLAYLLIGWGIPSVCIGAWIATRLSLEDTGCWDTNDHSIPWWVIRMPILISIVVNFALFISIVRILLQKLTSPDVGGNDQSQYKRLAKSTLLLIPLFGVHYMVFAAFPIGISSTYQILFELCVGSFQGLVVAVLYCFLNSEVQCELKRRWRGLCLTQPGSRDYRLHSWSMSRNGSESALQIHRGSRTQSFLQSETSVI
Protocol: Also, the cells are washed twice. […] The stimuli are present for 30 minutes. Then, the assay buffer is gently removed.

human VPAC2 receptor = target: T4, human VPAC2 receptor (human, UniProt P41587 24-438); assay: cell-based or functional assay
T4 sequence (looked up): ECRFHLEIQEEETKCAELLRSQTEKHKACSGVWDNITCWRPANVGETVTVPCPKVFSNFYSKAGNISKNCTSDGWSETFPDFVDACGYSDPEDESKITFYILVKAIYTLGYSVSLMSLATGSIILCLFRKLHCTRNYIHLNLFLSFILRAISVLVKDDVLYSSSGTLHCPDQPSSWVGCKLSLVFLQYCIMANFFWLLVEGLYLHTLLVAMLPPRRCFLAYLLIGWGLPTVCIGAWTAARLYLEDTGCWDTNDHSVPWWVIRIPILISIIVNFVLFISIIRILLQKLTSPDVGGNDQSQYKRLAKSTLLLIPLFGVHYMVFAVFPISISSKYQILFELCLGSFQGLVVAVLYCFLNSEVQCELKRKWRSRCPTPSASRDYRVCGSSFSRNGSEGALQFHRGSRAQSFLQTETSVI

rat VPAC1 receptor = target: T5, rat VPAC1 receptor (rat, UniProt P30083 31-459); assay: cell-based or functional assay
T5 sequence (looked up): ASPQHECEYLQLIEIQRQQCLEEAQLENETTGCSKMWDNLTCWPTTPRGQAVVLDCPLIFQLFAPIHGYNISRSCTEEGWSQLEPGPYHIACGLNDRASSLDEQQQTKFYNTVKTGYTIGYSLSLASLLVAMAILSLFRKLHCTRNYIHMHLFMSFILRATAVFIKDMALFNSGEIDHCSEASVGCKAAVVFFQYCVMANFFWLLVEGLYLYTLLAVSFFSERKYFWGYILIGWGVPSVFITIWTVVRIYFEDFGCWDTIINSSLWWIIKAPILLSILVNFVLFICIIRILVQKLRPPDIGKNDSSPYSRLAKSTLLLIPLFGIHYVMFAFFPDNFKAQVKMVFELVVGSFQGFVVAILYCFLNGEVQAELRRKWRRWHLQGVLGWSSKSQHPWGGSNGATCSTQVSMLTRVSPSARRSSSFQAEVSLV

rat VPAC2 receptor [5] = target: T6, rat VPAC2 receptor (rat, UniProt P35000 23-437); assay: cell-based or functional assay
T6 sequence (looked up): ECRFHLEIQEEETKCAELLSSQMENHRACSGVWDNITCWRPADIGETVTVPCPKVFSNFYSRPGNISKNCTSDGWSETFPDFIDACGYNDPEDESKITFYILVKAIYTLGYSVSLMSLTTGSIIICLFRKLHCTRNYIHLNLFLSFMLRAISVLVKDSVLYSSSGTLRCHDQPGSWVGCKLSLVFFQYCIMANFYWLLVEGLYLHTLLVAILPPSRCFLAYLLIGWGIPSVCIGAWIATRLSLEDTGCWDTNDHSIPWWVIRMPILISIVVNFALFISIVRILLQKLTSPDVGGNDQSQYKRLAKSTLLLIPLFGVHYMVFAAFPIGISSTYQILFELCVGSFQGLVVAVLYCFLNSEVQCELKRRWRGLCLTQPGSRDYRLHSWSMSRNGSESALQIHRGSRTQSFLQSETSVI

Row | Molecule | EC50 (human VPAC2 [1]) [nM] | IC50 (human VPAC2 [2]) [nM] | Rat Serum Stability (estimated purity in % after 18 hours) [3] [%] | IC50 (human VPAC1) [nM] | EC50 (rat VPAC2 receptor [4]) [nM] | Rat Serum Stability (Estimated purity in % after 72 hours) [3] [%] | EC50 cAMP, Alpha Screen (human VPAC2 receptor) [nM] | EC50 cAMP, DiscoveRx (rat VPAC1 receptor) [nM] | EC50 cAMP, DiscoveRx (rat VPAC2 receptor [5]) [nM]
1 | Hexanoyl-HSDAVFTDQYTRLR[Aib]QVAA[Aib]KYLQSIKQKRYGGPSSGAPPPS [Agonist P315] | 0.19 | 0.29 | 24.00 | > 3000 | 0.04 | – | – | – | –
2 | Hexanoyl-HSDAVFTDNYTR[Aib]R[Aib]QVAA[Aib]KYLQSIKNKRYGGPSSGAPPPS [Agonist P346] | 0.23 | 0.25 | 43.44 | > 3000 | 0.06 | 27.6 | – | – | –
3 | Hexanoyl-HSDAVFTDNYT[Orn]LR[Aib]QVAA[Aib]KYLQSIKNKRYGGPSSGAPPPS [Agonist P344] | 0.13 | 0.25 | 50.19 | > 3000 | 0.06 | 43.0 | – | – | –
4 | HSDAVFTDNYTXLRXQVAAXKYLQSIXNXGGPSSGAPPPS (N-terminal hexanoyl (C6); Orn at 12, 27, 29; Aib at 15, 20) [P326] | – | – | – | – | – | – | 0.21 | 4.53 | 0.09
5 | HSDAVFTDNYTXLRXQVAAXKYLQSIXNXXYGGPSSGAPPPS (N-terminal hexanoyl (C6); hR at 12, 27, 29, 30; Aib at 15, 20) [P338] | – | – | – | – | – | – | 0.46 | 5.16 | 0.07
6 | HSDAVFTDNYTRLRXQVAAXKYLQSIXXGGPSSGAPPPS (N-terminal hexanoyl (C6); Aib at 15, 20; Orn at 27, 28) [P352] | – | – | – | – | – | – | 0.14 | 4.35 | 0.09
